Structures can show the parent of a compound that is named as a salt. Where two headings read alike, the source gives them in different places.
Tests used:
[1] = test system: fibrin-induced microglia activation; assay: Image-based assay of fibrin-induced microglia activation (HTS and dose response); assay type: cell-based, rat; conditions: for inhibition at 10 µM: Rattus norvegicus, Microglia, read-out: Fibrin % inhibition
primary rat microglia [2] = test system: primary rat microglia;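 for Fibrin % cell toxicity: share of dead cells sized under 150 µm2 at 10 µM in fibrin-stimulated microglia HTS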
[3] = test system: LPS-induced microglia activation; assay: Image-based assay of LPS-induced microglia activation (HTS and dose response); assay type: cell-based, rat
primary rat microglia [4] = test system: primary rat microglia; remark: listed apart in the source;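 for Fibrin % cell toxicity: share of dead cells sized under 150 µm2 at 10 µM in fibrin-stimulated microglia HTS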
[5] = test system: fibrin- and LPS-induced microglia activation; assay: cells; assay type: cell-based, rat
[6] = Rattus norvegicus, Microglia, read-out: LPS % inhibition
[7] = primary microglia HTS, fibrin stimulation, compounds at 10 μM
[8] = Rattus norvegicus, Microglia, primary microglia HTS, LPS stimulation, compounds at 10 μM; read-out: LPS % inhibition
[9] = classification by fibrin and LPS inhibition, HTS at 10 μM
[10] = primary microglia HTS, fibrin stimulation, increased cell size (>800 μm^2) as marker of activation
[11] = Rattus norvegicus, Microglia, 48 h, primary microglia HTS, LPS stimulation; increased cell size (>800 μm^2) as marker of activation; read-out: LPS % inhibition
[12] = quadrant by fibrin and LPS inhibition in HTS of 1907 compounds

| SMILES | inhibition at 10 µM [1] [%] | LPS % cell toxicity (primary rat microglia [2]; rat) [%] | inhibition at 10 µM [3, 6] [%] | Fibrin % cell toxicity (primary rat microglia [4]; rat) [%] | Quadrant (FIG. 5b) [5] | other results |
| --- | --- | --- | --- | --- | --- | --- |
| CN1[C@@H]2CC[C@H]1C[C@@H](OC(c1ccccc1)c1ccccc1)C2 [Benztropine] | -7 | 0 | 30 | 1 | Q4 |  |
| CCc1cccc2c3c([nH]c12)C(CC)(CC(=O)O)OCC3 (stereo not shown) [Etodolac] |  | 1 |  | 0 |  | inhibition at 10 µM [1, 7]: -87%; inhibition at 10 µM [3, 8]: 14%; Quadrant (FIG. 5b) [5, 9]: Q4 |
| CC12CCC(CC1)C(C)(C)O2 [Eucalyptol] |  | 0 |  | 0 |  | inhibition at 10 µM [1, 7]: -15%; inhibition at 10 µM [3, 8]: 9%; Quadrant (FIG. 5b) [5, 9]: Q4 |
| Cc1[nH]c(=O)c(C#N)cc1-c1ccncc1 [Milrinone] |  | 0 |  | 0 |  | inhibition at 10 µM [1, 10]: 4%; inhibition at 10 µM [3, 11]: 23%; Quadrant (FIG. 5b) [5, 12]: Q4 |
| CN(C)CCC(c1ccccc1)c1ccccn1 (stereo not shown) [Pheniramine] |  | 0 |  | 1 |  | inhibition at 10 µM ([1]; primary microglia HTS, fibrin stimulation, cell size >800 μm2 as marker of activation): -9%; inhibition at 10 µM ([3]; Rattus norvegicus, Microglia, 48 h; read-out: LPS % inhibition): 1%; Quadrant (FIG. 5b) ([5]; classification by fibrin and LPS inhibition in HTS): Q4 |
| O=C(O)CCC(=O)OC[C@@H](NC(=O)C(Cl)Cl)[C@H](O)c1ccc([N+](=O)[O-])cc1 [CHLOR[…]] | 24 | 1 | 14 | 2 | Q4 |  |
| O=C([O-])C[C@H](O)C[C@H](O)/C=C/c1c(C2CC2)nc2ccccc2c1-c1ccc(F)cc1.O=C([O-])C[C@H](O)C[C@H](O)/C=C/c1c(C2CC2)nc2ccccc2c1-c1ccc(F)cc1.[Ca+2] [Pitavastatin calcium, reference compound] |  |  |  |  | Q2 | Fibrin % inhibition [1]: 100%; Fibrin Selectivity [1]: 4; Fibrin Selectivity (LOG10) [1]: 0.61; IC50 ([1]; read-out: Fibrin IC50): 1 µM; IC50 ([1]; read-out: Fibrin IC50 (uM) (Suppl. Table 7)): 1 µM; IC50 (primary rat microglia [2]): > 20 µM; LPS % cell toxicity (primary rat microglia [2]): 1%; LPS % inhibition [3]: 66%; IC50 ([3]; read-out: LPS IC50): 5 µM; IC50 ([3]; read-out: LPS IC50 (uM) (Suppl. Table 7)): 5 µM; Fibrin % cell toxicity (primary rat microglia [4]): 1%; IC50 (primary rat microglia [4]): > 20 µM; Cherry-picked Hit (Suppl. Table 7) [5]: HIT (key: HIT: Hits were defined as molecules that exhibited greater than 50% inhibition of either fibrin or LPS activation); Hit [5]: HIT (key: HIT: Hits were defined as molecules that exhibited greater than 50% inhibition of either fibrin or LPS activation) |
| Oc1ccc(O)cc1 [Hydroquinone] | 14 | 0 |  | 1 | Q4 | inhibition at 10 µM ([3]; Rattus norvegicus, Microglia, 48 h, read-out: LPS % inhibition): 12% |
| O=C(O)c1cc(=O)[nH]c(=O)[nH]1 [Orotic Acid] |  | 0 |  | 0 |  | inhibition at 10 µM [1, 10]: -5%; inhibition at 10 µM [3, 11]: 16%; Quadrant (FIG. 5b) [5, 12]: Q4 |
| CN(C)CCOc1ccc(/C(=C(/CCCl)c2ccccc2)c2ccccc2)cc1 [Toremifene] | 14 | 0 | 19 | 1 | Q4 |  |
| COc1ccc(CN(CCN(C)C)c2ncccn2)cc1 [Thonzylamine Hydrochloride] |  | 0 |  | 0 |  | inhibition at 10 µM ([1]; primary microglia HTS, 10 μM, fibrin-stimulated, cell size >800 μm^2 as marker of activation): -21%; inhibition at 10 µM ([3]; Rattus norvegicus, Microglia, primary microglia HTS, 10 μM, LPS-stimulated, cell size >800 μm^2 as marker of activation; read-out: LPS % inhibition): 6%; Quadrant (FIG. 5b) ([5]; HTS of 1907 compounds, quadrant by fibrin and LPS inhibition): Q4 |
| CCN(CC)CCCC(C)Nc1ccnc2cc(Cl)ccc12 (stereo not shown) [Chloroquine] | 2 | 0 | 7 | 0 | Q4 |  |
| CS(=O)(=O)OCCCCOS(C)(=O)=O [Busulfan] |  | 0 |  | 0 |  | inhibition at 10 µM ([1]; primary HTS, 10 μM, fibrin-stimulated primary microglia): 1%; inhibition at 10 µM ([3]; Rattus norvegicus, Microglia, primary HTS, 10 μM, LPS-stimulated primary microglia; read-out: LPS % inhibition): 2%; Quadrant (FIG. 5b) ([5]; primary HTS, 10 μM): Q4 |
| Clc1ccccc1C(c1ccccc1)(c1ccccc1)n1ccnc1 [Clotrimazole] | -13 | 0 | 13 | 1 | Q4 |  |
| N#Cc1ccc(C(c2ccc(C#N)cc2)n2cncn2)cc1 [Letrozole] |  | 0 |  | 1 |  | inhibition at 10 µM ([1]; primary microglia HTS, fibrin stimulation, activation = cell size >800 μm2): 15%; inhibition at 10 µM ([3]; Rattus norvegicus, Microglia, 48 h, primary microglia HTS, LPS stimulation, activation = cell size >800 μm2; read-out: LPS % inhibition): 16%; Quadrant (FIG. 5b) [5, 12]: Q4 |

— US20210330611A1, “THERAPY FOR NEUROLOGICAL DISEASES/DISORDERS” (priority 2020, published 2021)
